Assay results published in PMC9709641 (Frontiers in Plant Science, 2022).

Tests used:
α-glucosidase [1] = experiment: PNPG hydrolysis assay, absorbance at […] nm; format: biochemical
α-glucosidase [2] = experiment: PNPG hydrolysis assay, absorbance at […] nm; maximum inhibition […] at […]; format: biochemical

## N#CC(O)c1ccc(O)cc1 (centres unmarked) [4-hydroxymandelonitrile]
α-glucosidase [1]
  IC50: 15.8 µM

## eleutheroside E
α-glucosidase [2]
  IC50: 0.19 µM
